The source of these data is patent publication US20080261863A1 (priority 2004, published 2008).

A short description of data set [1]: Measurement of blood pressure in anesthetized rats. In kind it is in vivo, rat. The conditions noted are these: male, Wistar, rat, in vivo; intravenous, rats; read-out: ED50 blood pressure lowering. The method, then:
(§1) Blood pressure in rats was measured following administration of either non-PEGylated or PEGylated VPAC2 agonist peptides. Blood pressure was measured as follows: Male Wistar rats were anesthetized with pentobarbital (55 mg/kg, i.p.) and the right carotid artery and jugular vein were cannulated. The carotid cannula was connected to the Biopac System (Harvard Apparatus Co., Harvard, Mass.) for continuous monitoring of blood pressure and heart rate. Vehicle or peptide was administered by injection through the jugular vein catheter.

Data set [2] deals with blood pressure in Male Wistar rats. In words: Measurement of blood pressure in anesthetized rats. In kind it is in vivo, rat. The conditions noted are these: FIG. 2, percentage of mean blood pressure of vehicle-treated rats. How it is done:
as §1

Data set [3] deals with T1, VPAC2 receptor (Homo sapiens, UniProt P41587).
T1 construct: expressed in transfected cells; host or cells: CHO cells under hygromycin and Geneticin selection
T1 sequence (P41587 24-438): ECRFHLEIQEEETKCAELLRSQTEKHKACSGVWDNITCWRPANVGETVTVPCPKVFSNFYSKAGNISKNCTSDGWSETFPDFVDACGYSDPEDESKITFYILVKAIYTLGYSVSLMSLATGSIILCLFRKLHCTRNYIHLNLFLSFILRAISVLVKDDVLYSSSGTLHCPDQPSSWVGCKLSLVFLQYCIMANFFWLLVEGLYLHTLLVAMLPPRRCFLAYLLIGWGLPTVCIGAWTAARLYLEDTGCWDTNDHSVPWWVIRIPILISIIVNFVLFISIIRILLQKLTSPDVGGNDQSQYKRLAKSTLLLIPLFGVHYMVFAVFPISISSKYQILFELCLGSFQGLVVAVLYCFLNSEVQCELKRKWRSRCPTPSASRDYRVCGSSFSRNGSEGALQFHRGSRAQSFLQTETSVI
In words: Cyclic AMP SPA in CHO cells expressing VPAC2. The class given is cell-based. The conditions noted are these: cAMP in cells overexpressing the VPAC2 receptor.
Description: CHO cells expressing the VPAC2 peptide were plated in 96-well plates at 8×10^4 cells/well and grown at 37° C. for 24 hours in αMEM, nucleosides, glutamine (Gibco/BRL, Rockville, Md.), 5% FBS, 100 μg/mL Pen/Strep, 0.4 mg/mL hygromycin, and 1.5 mg/mL Geneticin (Gibco/BRL). The media was removed and the plates were washed with PBS. The cells were incubated with a peptide (in 10 mM Hepes, 150 mM NaCl, 5 mM KCl, 2.5 mM CaCl2, 1.2 mM KH2PO4, 1.2 mM MgSO4, 25 mM NaHCO3 (pH 7.4) with 1% BSA and 100 μM IBMX) for 15 min. at 37° C. Cyclic AMP in the cell extracts was quantitated using the cAMP SPA direct screening assay system (Amersham Pharmacia Biotech Inc., Piscataway, N.J.,). The amount of cAMP present in the lysates was determined following instructions provided with this kit. The amount of cAMP (in pmol) produced at each concentration of peptide was plotted and analyzed by nonlinear regression using Prizm software to determine the EC50 for each peptide.

For data set [4], the target named is T2, VPAC1 (Homo sapiens, UniProt P32241).
T2 sequence (P32241 31-457): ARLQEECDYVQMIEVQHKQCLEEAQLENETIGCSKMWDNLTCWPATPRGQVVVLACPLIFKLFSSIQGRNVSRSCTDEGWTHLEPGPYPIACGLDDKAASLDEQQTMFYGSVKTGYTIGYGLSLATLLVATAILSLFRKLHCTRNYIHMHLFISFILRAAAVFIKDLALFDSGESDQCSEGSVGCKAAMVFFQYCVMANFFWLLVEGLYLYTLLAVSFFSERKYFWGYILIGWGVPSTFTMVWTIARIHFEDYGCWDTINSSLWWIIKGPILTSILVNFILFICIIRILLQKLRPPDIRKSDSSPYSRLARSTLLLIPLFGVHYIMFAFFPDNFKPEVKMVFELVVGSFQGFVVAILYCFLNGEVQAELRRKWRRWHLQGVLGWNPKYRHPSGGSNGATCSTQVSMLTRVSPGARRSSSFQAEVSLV
Description: Cyclic AMP assay, VPAC1 agonist activity. The class given is cell-based.

Consider `CC[C@H](C)[C@H](NC(=O)[C@H](CO)NC(=O)[C@H](CCC(N)=O)NC(=O)[C@H](CC(C)C)NC(=O)[C@H](Cc1ccc(O)cc1)NC(=O)[C@H](CCCCN)NC(=O)[C@H](CCCCN)NC(=O)[C@H](C)NC(=O)[C@H](C)NC(=O)[C@@H](NC(=O)[C@H](CCC(N)=O)NC(=O)[C@H](CCCCN)NC(=O)[C@H](CCCNC(=N)N)NC(=O)[C@H](CC(C)C)NC(=O)[C@H](CCCNC(=N)N)NC(=O)[C@@H](NC(=O)[C@H](Cc1ccc(O)cc1)NC(=O)[C@H](CCC(N)=O)NC(=O)[C@H](CC(=O)O)NC(=O)[C@@H](NC(=O)[C@H](Cc1ccccc1)NC(=O)[C@@H](NC(=O)[C@H](C)NC(=O)[C@H](CC(=O)O)NC(=O)[C@H](CO)NC(=O)[C@@H](N)Cc1c[nH]cn1)C(C)C)[C@@H](C)O)[C@@H](C)O)C(C)C)C(=O)N[C@@H](CCCCN)C(=O)N[C@@H](CCC(N)=O)C(=O)N[C@@H](CCCCN)C(=O)N[C@@H](CCCNC(=N)N)C(=O)N[C@@H](Cc1ccc(O)cc1)C(=O)N[C@@H](CS)C(=O)O` [Peptide P12], for which the ED50 in data set [1] was 3 µg/kg. Further, the “effect on blood pressure” value in data set [2] is “significantly lowers blood pressure”.
Take PACAP-27: the “VPAC2 receptor agonist activity” value in data set [3] was “potent agonist of both the VPAC1 and VPAC2 receptors”. Besides, the “VPAC1 agonist activity” value in data set [4] was “potent agonist of both the VPAC1 and VPAC2 receptors”.

As usually defined, the ED50 is the dose at which the effect has come halfway, by size or by number of responders.
